Measured values taken from patent US11400112B2, “Combination therapy for treatment of leukemia” (St George's Hospital Medical School, priority 2018, dated 2022).

Tests used:
[1] = tested on: acute promyelocytic leukemia (APL); conditions: standard of care; cited from earlier work
[2] = tested on: malignant cells (NB4 naïve, NB4-EVAsR1, U937, THP-1, Kasumi, Jurkat cell lines); assay: Apoptosis assay on leukemic cell lines (FIG. 5); format: cell-based; conditions: 2 μM ATO, 5 μM ART, 48 hours
Experimental: (§1) In particular, the effects of Metformin, Dichloroacetate (DCA) and Artesunate (ART) in combination with arsenic trioxide were evaluated. […] Methods i) In vitro cytotoxicity assay: 10^5 cells/well were seeded in a 96 well plate and treated with increasing concentration of artesunate and arsenic trioxide and incubated for 48 hours. At the end of 48 hrs MTT was added, followed by SDS to solubilize the formazan crystals formed by the viable cells. The absorbance was measured on an ELISA plate reader SpectraMaxM4 (Molecular Devices) at a test wavelength of 570 nm and a reference wavelength of 630 nm to measure the optical density. […] An IC-50 value was generated if significant cytotoxicity was detected. […] CO2 incubator, the viability of the leukemic cells was measured using an Annexin V/7-aminoactinomycin D (7AAD) apoptosis assay kit (BD Pharmingen, San Diego, Calif., USA) as per the manufacturer's protocol. The flow cytometry data were analysed using Cell Quest pro software (BD Biosciences, San Jose, Calif., USA). iii) Measurement of Glucose Uptake: 5×10^5 cells were stained with 2-NBDG (fluorescent analogue of 2-Deoxyglucose) for 10 minutes, washed and the fluorescence measured at 485 nm/595 nm using Spectramax M4. […] The ratio of red to green fluorescence (590/530) was calculated and the Δψm of treated cells compared with the untreated cells.

U937 cells = assay: Viability of U937 cells (apoptosis assay, Annexin V/7AAD); format: cell-based; conditions: 48 hours
Experimental: The half-maximal inhibitory concentration (IC-50) values were generated using Graph Pad Prism5 software (La Jolla, Calif., USA). ii) Apoptosis Assay: Leukemic cell lines were added (2×10^5 cells/well) in 24-well plates and treated with different drugs reported to disrupt the metabolic adaptation of the leukemia cells along with appropriate controls. After 48 h of incubation at 37° C. CO2 incubator, the viability of the leukemic cells was measured using an Annexin V/7-aminoactinomycin D (7AAD) apoptosis assay kit (BD Pharmingen, San Diego, Calif., USA) as per the manufacturer's protocol. The flow cytometry data were analysed using Cell Quest pro software (BD Biosciences, San Jose, Calif., USA). iii) Measurement of Glucose Uptake: 5×10^5 cells were stained with 2-NBDG (fluorescent analogue of 2-Deoxyglucose) for 10 minutes, washed and the fluorescence measured at 485 nm/595 nm using Spectramax M4.

[3] = mouse, in vivo
Experimental: To further validate this in vitro observation, in vivo studies were performed on a mouse model of acute promyelocytic leukemia.

[4] = tested on: ATO resistant cell lines (NB4-EVAsR1, UF-1); assay: Viability of ATO resistant cell lines (apoptosis assay); format: cell-based; conditions: NB4-EVAsR1 and UF-1; 48 hours
Experimental: as §1

NB4 naïve cells = assay: Viability of NB4 naïve cells (apoptosis assay, Annexin V/7AAD); format: cell-based; conditions: 48 hours
Experimental: as §1

Arsenic trioxide [ATO]
outcome in the management of APL [1]: greater than 80%

CN(C)C(=N)N=C(N)N [Metformin]
effect on the malignant cells (Annexin V-/7AAD- cells) [2]: did not have a significant effect

hemin
viability of AML cells (Annexin V-/7AAD- cells) (U937 cells; hemin instead of ALA, FIG. 8): did not affect

C[C@H]1[C@H](OC(=O)CCC(=O)O)O[C@@H]2O[C@@]3(C)CC[C@H]4[C@H](C)CC[C@@H]1[C@@]24OO3 [ART, artesunate]
effect on the malignant cells (Annexin V-/7AAD- cells) [2]: did not have a significant effect

NCC(=O)CCC(=O)O [ALA, Delta-aminolevulinic acid]
toxicity in mice [3]: significant toxicity
viability of AML cells (Annexin V-/7AAD- cells) (U937 cells; ATO 1 μM, ART 5 μM, ALA 1 mM, DFO 20 μM, FIG. 7): did not affect

N#CC(C#N)=NNc1ccc(OC(F)(F)F)cc1 [FCCP, Carbonyl cyanide-4-(trifluoromethoxy)phenylhydrazone]
viability of the ATO resistant cell lines [4]: remained unaffected

O=CC[C@@H](O)[C@H](O)[C@H](O)CO [2-DOG, 2-Deoxy-D-glucose]
viability of NB4 naïve cells (NB4 naïve cells): sensitive
viability of the ATO resistant cell lines [4]: resistant
